Measurements reported in patent US20230203059A1, “MACROCYCLIC JAK INHIBITOR AND USES THEREOF” (Biopolar Hongye (Guangdong) Pharmaceutical Co. Ltd., priority 2020, published 2023).

Legend:
Format in all cases: biochemical
[1] = target: JAK1 (Homo sapiens, UniProt P23458); experiment: JAK kinase activity, homogeneous time-resolved fluorescence (JAK1 reaction system); conditions: ATP 2 μM, JAK1 protein 0.2 ng/μL; read-out: JAK 1 activity
In short: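 Kinase activity read as the 665 nm/615 nm time-resolved fluorescence ratio (320 nm excitation) after EDTA-containing antibody and XL-615 addition. Reaction ran 1 h at pH 7.0 (Hepes, MgCl2, DTT) with 0.2 ng/μL JAK1 and ATP at 2 μM. IC50 derived by Hill-slope fit.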

[2] = target: JAK2 (Homo sapiens, UniProt O60674); experiment: JAK kinase activity, homogeneous time-resolved fluorescence (JAK2 reaction system); conditions: ATP 2 μM, JAK2 protein 0.01 ng/μL
JAK2, sequence (O60674 whole entry): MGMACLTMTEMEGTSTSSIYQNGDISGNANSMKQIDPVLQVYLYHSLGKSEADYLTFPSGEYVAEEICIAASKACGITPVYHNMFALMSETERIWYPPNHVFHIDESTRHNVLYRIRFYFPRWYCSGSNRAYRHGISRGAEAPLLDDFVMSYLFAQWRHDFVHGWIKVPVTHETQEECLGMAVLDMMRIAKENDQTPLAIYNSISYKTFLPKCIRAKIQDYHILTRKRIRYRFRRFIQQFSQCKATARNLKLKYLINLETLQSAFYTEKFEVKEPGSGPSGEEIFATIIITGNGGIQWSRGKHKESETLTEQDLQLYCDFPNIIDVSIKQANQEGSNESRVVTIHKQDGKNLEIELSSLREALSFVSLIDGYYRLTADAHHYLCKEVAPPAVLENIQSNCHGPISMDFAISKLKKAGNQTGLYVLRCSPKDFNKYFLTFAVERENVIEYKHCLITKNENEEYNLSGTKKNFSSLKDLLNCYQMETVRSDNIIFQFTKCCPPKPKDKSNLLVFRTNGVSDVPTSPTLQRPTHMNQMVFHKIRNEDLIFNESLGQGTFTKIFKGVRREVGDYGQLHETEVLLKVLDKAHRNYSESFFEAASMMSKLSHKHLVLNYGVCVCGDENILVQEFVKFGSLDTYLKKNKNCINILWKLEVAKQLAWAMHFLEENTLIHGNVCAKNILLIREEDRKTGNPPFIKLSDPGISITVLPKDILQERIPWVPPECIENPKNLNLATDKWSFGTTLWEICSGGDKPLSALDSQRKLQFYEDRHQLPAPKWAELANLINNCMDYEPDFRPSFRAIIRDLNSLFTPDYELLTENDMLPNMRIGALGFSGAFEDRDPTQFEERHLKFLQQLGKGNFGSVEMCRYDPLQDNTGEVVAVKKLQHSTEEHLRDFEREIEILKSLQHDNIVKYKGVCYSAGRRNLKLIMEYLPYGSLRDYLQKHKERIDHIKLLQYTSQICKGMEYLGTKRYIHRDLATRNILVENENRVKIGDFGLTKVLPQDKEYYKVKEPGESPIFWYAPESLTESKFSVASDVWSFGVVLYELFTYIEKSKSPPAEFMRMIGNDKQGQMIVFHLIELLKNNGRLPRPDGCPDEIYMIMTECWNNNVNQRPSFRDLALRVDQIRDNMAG
In short: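 IC50 derived by Hill-equation fit of the 665/615 nm time-resolved fluorescence ratio after EDTA-containing detection mix with anti-phosphosubstrate antibody. Preceding 1 h reaction contained 2 μM ATP, 0.01 ng/μL JAK2, substrate, 50 mM Hepes pH 7.0, 5 mM MgCl2, 1 mM DTT.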

[3] = target: T1, JAK3 (Homo sapiens, UniProt P52333); experiment: JAK kinase activity, homogeneous time-resolved fluorescence (JAK3 reaction system); conditions: ATP 2 μM, JAK3 protein 0.04 ng/μL; read-out: JAK 3 activity
T1 sequence (P52333 1-1124): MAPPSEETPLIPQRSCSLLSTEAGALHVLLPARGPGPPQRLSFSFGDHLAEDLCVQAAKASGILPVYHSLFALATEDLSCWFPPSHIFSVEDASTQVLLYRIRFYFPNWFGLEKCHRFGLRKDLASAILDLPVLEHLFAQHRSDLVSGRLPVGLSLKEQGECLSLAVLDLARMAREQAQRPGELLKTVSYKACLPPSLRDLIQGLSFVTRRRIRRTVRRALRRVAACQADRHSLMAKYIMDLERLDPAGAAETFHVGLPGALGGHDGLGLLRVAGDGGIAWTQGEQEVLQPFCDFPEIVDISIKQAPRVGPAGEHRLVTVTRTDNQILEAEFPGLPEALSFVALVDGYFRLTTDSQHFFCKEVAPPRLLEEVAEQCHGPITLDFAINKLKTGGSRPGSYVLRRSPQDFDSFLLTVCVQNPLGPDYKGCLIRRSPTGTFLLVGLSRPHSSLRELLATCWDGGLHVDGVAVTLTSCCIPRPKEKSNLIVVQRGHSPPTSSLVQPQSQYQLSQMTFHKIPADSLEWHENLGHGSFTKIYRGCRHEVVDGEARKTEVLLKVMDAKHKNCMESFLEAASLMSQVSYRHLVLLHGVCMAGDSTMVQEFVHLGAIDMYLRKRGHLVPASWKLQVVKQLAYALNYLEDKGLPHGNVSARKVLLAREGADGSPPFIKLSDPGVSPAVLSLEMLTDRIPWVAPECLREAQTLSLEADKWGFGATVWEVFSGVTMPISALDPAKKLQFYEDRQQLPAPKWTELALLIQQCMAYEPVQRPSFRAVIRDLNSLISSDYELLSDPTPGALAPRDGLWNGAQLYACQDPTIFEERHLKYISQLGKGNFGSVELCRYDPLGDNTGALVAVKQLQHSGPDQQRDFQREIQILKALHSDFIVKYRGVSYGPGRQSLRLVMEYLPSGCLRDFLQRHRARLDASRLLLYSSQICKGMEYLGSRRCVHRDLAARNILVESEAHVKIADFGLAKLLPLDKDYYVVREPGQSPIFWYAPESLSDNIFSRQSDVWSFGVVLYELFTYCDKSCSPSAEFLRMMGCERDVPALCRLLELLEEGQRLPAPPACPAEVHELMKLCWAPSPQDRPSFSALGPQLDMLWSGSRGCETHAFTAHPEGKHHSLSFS

[4] = target: TYK2 (Homo sapiens, UniProt P29597); experiment: JAK kinase activity, homogeneous time-resolved fluorescence (TYK2 reaction system); conditions: ATP 2 μM, TYK2 protein 0.2 ng/μL; read-out: TYK 2 activity
TYK2, sequence (P29597 whole entry): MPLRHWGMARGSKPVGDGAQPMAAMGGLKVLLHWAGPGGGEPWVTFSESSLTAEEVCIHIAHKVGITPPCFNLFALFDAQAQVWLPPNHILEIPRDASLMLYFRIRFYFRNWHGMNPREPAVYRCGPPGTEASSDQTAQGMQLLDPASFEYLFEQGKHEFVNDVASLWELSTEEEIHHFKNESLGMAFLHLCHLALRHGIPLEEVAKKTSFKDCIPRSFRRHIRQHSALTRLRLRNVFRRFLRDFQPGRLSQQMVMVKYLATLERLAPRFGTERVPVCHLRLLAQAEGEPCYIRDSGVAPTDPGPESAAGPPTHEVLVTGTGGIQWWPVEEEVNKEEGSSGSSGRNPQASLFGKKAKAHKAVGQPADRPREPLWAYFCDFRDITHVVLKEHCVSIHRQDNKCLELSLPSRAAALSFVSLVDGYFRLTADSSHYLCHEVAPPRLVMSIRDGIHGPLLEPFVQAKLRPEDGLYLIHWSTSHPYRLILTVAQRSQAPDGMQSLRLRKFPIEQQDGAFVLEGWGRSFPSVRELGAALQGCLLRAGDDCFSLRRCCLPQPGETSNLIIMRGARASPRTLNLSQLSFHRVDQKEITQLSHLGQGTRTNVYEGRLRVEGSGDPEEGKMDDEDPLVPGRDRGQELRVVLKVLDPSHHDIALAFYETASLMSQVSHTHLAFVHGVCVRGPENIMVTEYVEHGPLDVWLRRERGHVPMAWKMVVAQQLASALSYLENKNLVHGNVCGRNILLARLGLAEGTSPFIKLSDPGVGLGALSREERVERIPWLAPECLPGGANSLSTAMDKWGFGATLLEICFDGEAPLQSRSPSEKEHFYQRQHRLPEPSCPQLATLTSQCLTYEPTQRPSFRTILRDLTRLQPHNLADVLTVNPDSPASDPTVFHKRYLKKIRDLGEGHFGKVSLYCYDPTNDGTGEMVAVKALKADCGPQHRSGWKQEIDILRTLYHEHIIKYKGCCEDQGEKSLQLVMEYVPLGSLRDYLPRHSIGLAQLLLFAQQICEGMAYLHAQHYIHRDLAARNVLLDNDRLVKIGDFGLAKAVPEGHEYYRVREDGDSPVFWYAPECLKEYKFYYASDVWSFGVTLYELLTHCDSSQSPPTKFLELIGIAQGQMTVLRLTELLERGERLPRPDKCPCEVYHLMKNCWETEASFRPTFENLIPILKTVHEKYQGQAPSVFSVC
In short: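 Activity read as the 665 nm/615 nm ratio after adding EDTA-containing detection mix with anti-phospho-substrate antibody and XL-615. Beforehand, 0.2 ng/μL TYK2, 2 μM ATP, substrate and compound reacted 1 h in pH 7.0 Hepes buffer with MgCl2 and DTT. IC50 fitted with Hill-slope equation.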

JAK1, sequence (P23458 whole entry): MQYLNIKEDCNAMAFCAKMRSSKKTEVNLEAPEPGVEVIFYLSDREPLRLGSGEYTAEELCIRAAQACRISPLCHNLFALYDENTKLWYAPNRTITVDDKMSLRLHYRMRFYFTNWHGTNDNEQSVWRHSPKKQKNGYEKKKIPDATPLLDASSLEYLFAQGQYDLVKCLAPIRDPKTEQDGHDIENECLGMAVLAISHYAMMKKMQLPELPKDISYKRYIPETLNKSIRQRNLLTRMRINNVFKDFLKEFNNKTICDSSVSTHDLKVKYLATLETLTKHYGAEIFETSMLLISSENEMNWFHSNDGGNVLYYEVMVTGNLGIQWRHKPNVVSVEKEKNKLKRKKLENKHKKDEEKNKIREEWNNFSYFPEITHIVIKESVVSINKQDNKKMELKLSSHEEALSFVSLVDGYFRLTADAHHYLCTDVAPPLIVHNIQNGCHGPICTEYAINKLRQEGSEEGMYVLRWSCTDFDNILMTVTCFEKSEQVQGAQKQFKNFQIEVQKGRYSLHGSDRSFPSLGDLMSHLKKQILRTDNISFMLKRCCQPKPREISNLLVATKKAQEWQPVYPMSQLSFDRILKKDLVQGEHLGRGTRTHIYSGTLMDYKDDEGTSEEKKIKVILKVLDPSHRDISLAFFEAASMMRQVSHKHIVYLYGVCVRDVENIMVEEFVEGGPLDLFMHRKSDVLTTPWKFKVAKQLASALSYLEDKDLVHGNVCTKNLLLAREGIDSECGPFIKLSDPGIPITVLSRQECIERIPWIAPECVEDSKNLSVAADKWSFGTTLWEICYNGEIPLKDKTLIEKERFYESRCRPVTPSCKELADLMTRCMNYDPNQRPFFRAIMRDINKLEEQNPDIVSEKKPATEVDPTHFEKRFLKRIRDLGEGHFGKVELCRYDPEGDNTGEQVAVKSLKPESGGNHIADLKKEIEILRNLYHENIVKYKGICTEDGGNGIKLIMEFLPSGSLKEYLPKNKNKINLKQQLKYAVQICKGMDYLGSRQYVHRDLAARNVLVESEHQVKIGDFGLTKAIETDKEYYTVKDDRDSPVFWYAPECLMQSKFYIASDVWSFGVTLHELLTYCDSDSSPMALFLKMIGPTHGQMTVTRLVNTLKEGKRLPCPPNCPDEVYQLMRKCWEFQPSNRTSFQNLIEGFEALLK

SMILES | IC50 [1] [µM] | IC50 [2] [µM] | IC50 [3] [µM] | IC50 [4] [µM]
O=C1Nc2ccc(cc2)OCc2cc(ccc2OC2CCCC2)Nc2nccc(n2)-c2ccc1cc2O [Example 215, 4^4-(cyclopentoxy)-1^2-hydroxy-6-oxa-3,8-diaza-2 (4,2)-pyrimidina-1,7(1,4),4(1,3)-tribenzenacyclononaphane-9-one] | 1 to 10 | 0.101 to 1 | 0.011 to 0.1 | 1 to 10
CC(C)Oc1ccc2cc1COCCCCNC(=O)c1ccc(c([N+](=O)[O-])c1)-c1ccnc(n1)N2 [Example 64, 4^4-isopropoxy-1^2-nitro-6-oxa-3,11-diaza-2(4,2)-pyrimidina-1(1,4),4(1,3)-dibenzenacyclododecaphan-12-one] | 1 to 10 | 0.101 to 1 | 0.101 to 1 | > 10
Nc1cc2ccc1-c1ccnc(n1)Nc1cc(F)c(OC3CCOCC3)c(c1)COCCCCNC2=O [Example 84, 1^2-amino-4^5-fluoro-4^4-((tetrahydro-2H-pyran-4-yl)oxy)-6-oxa-3,11-dia-za-2(4,2)-pyrimidina-1(1,4),4(1,3)-dibenzenacyclododecaphan-12-one] | 0.101 to 1 | 0.101 to 1 | 0.011 to 0.1 | 1 to 10
O=C1NCCCCOCc2cc(cc(Cl)c2N2CCOCC2)Nc2nccc(n2)-c2ccc1cc2 [Example 8, 4^5-chloro-4^4-morpholin-6-oxa-3,11-diaza-2(4,2)-pyrimidina-1(1,4),4(1,3)-dibenzenacyclododecaphan-12-one] | 0.101 to 1 | 0.011 to 0.1 | 0.011 to 0.1 | 0.101 to 1
O=C1NCCCCOCc2cc(ccc2OC2CC2)Nc2nccc(n2)-c2ccc1cc2[N+](=O)[O-] [Example 73, 4^4-cyclopropoxy-1^2-nitro-6-oxa-3,11-diaza-2(4,2)-pyrimidina-1(1,4),4(1,3)-dibenzenacyclododecaphan-12-one] | 1 to 10 | 1 to 10 | 0.101 to 1 | > 10
O=C1NCCCCOCc2cc(ccc2N2CCCCC2)Nc2nccc(n2)-c2ccc1cc2[N+](=O)[O-] [Example 48, 1^2-nitro-4^4-(piperidin-1-)-6-oxa-3,11-diaza-2(4,2)-pyrimidina-1(1,4),4(1,3)-dibenzenacyclododecaphan-12-one] | 1 to 10 | 1 to 10 | 0.101 to 1 | 1 to 10
O=C1NCCCCOCc2cc(ccc2N2CCOCC2)Nc2ncc(Cl)c(n2)-c2ccc1cc2Cl [Example 17, 1^2,2^5-dichloro-4^4-morpholin-6-oxa-3,11-diaza-2(4,2)-pyrimidina-1(1,4),4(1,3)-dibenzenacyclododecaphan-12-one] | 1 to 10 | 0.101 to 1 | 0.101 to 1 | 1 to 10
CC(C)COc1ccc2cc1COc1ccc(cc1)NC(=O)c1ccc(c([N+](=O)[O-])c1)-c1ccnc(n1)N2 [Example 201, 4^4-isobutoxy-1^2-nitro-6-oxa-3,8-dia-za-2(4,2)-pyrimidina-1,7(1,4),4(1,3)-tribenzenacyclononaphane-9-one] | > 10 | > 10 | 1 to 10 | > 10
O=C1NCCCCOCc2cc(cc(N3CCOCC3)c2)Nc2nccc(n2)-c2ccc1cc2[N+](=O)[O-] [Example 51, 1^2-nitro-4^5-morpholin-6-oxa-3,11-di-aza-2(4,2)-pyrimidina-1(1,4),4(1,3)-dibenzenacyclododecaphan-12-one] | 1 to 10 | 1 to 10 | 0.101 to 1 | > 10
O=C1NCCCCOCc2cc(ccc2Cl)Nc2nccc(n2)-c2ccc1cc2F [Example 20, 4^4-chloro-1^2-fluoro-6-oxa-3,11-diaza-2(4,2)-pyrimidina-1(1,4),4(1,3)-di-benzenacyclododecaphan-12-one] | 0.101 to 1 | 0.101 to 1 | 0.011 to 0.1 | 1 to 10

Other lines, results leading:

IC50 [1] [µM] | IC50 [2] [µM] | IC50 [3] [µM] | IC50 [4] [µM] | SMILES
1 to 10 | 1 to 10 | 0.011 to 0.1 | 1 to 10 | COc1cc(F)cc(Cl)c1COc1ccc2cc1COCCCCNC(=O)c1ccc(c(N)c1)-c1ccnc(n1)N2 [Example 195, 1^2-amino-4^4-((2-chloro-4-fluoro-6-methoxybenzyl)oxy)-6-oxa-3,11-diaza-2(4,2)-pyrimidina-1(1,4),4(1,3)-dibenzenacyclododecaphan-12-one]
1 to 10 | 0.101 to 1 | 0.011 to 0.1 | 1 to 10 | C[C@H]1CCOCc2cc(ccc2OC2CC2)Nc2nccc(n2)-c2ccc(cc2N)C(=O)NC1 [Example 180, (S)-1^2-amino-4^4-cyclopropoxy-9-methyl-6-oxa-3,11-diaza-2(4,2)-py-rimidina-1(1,4),4(1,3)-dibenzena-cyclododecaphan-12-one]
0.101 to 1 | 0.101 to 1 | < 0.01 | 1 to 10 | Nc1cc2ccc1-c1ccnc(n1)Nc1ccc(OCC3CCOC3)c(c1)COCCCCNC2=O (stereo not shown) [Example 125, 1^2-amino-4^4-((tetrahydrofuran-3-yl)methoxy)-6-oxa-3,11-diaza-2(4,2)-pyrimidina-1(1,4),4(1,3)-dibenz-enacyclododecaphan-12-one]
0.101 to 1 | 0.011 to 0.1 | < 0.01 | 1 to 10 | Nc1cc2ccc1-c1ccnc(n1)Nc1ccc(OC3CCCOC3)c(c1)COCCCCNC2=O (stereo not shown) [Example 114, 1^2-amino-4^4-((tetrahydro-2H-pyran-3-yl)oxy)-6-oxa-3,11-diaza-2(4,2)-pyrimidina-1(1,4),4(1,3)-di-benzenacyclododecaphan-12-one]
> 10 | > 10 | 0.101 to 1 | > 10 | CC1CCNC(=O)c2ccc(c([N+](=O)[O-])c2)-c2ccnc(n2)Nc2ccc(OCC3CCCC3)c(c2)COC1 (stereo not shown) [Example 128, 4^4-(cyclopentylmethoxy)-8-methyl-1^2-nitro-6-oxa-3,11-diaza-2(4,2)-pyrimidina-1(1,4),4(1,3)-dibenzena-cyclododecaphan-12-one]
1 to 10 | 1 to 10 | 0.101 to 1 | > 10 | CNc1cc2ccc1-c1ccnc(n1)Nc1ccc(OC(C)C)c(c1)COCCCCNC2=O [Example 86, 4^4-isopropoxy-1^2-methyalmino-6-o-xa-3,11-diaza-2(4,2)-pyrimidina-1(1,4),4(1,3)-dibenzenacyclododecaphan-12-one]
> 10 | > 10 | 1 to 10 | > 10 | O=C1NCCCCOCc2cc(ccc2OCC2CCc3ccccc32)Nc2nccc(n2)-c2ccc1cc2[N+](=O)[O-] (stereo not shown) [Example 133, 4^4-((2,3-dihydro-1H-inden-1-yl)methoxy)-1^2-nitro-6-oxa-3,11-diaza-2(4,2)-pyrimidina-1(1,4),4(1,3)-dibenzenacyclododecaphan-12-one]
1 to 10 | 0.101 to 1 | < 0.01 | 1 to 10 | COc1cccc(F)c1COc1ccc2cc1COCCC(C)CNC(=O)c1ccc(c(N)c1)-c1ccnc(n1)N2 (stereo not shown) [Example 182, 1^2-amino-4^4-((2-fluoro-6-methoxy-benzyl)oxy)-9-methyl-6-oxa-3,11-diaza-2(4,2)-pyrimidina-1(1,4),4(1,3)-dibenzenacyclododecaphan-12-one]
0.101 to 1 | 0.101 to 1 | 0.011 to 0.1 | 1 to 10 | Nc1cc2ccc1-c1ccnc(n1)Nc1ccc(OCC3CCOC3)c(c1)COc1ccc(cc1)NC2=O (stereo not shown) [Example 211, 1^2-amino-4^4-((tetrahydrofuran-3-yl)methoxy)-6-oxa-3,8-diaza-2(4,2)-py-rimidina-1,7(1,4),4(1,3)-tribenzena-cyclononaphane-9-one]
